{"source": "paper PMC9293779", "about": "“Elucidation of binding preferences of YEATS domains to site-specific acetylated nucleosome core particles” (The Journal of Biological Chemistry, 2022)", "key": {"YEATS2-YEATS": {"biological_target": "YEATS2-YEATS", "design": "method as in 2 sources, one per row (each row's own in cited_ref): ref 50 = [50]; PMID 27103431; doi:10.1038/cr.2016.49; 50 Zhao D. Guan H. Zhao S. Mi W. Wen H. Li Y. YEATS2 is a selective histone crotonylation reader Cell Res. 26 2016 629 632 27103431 10.1038/cr.2016.49 PMC4856769 ||| ref 31 = [31]; PMID 29057918; doi:10.1038/s41467-017-01173-4; 31 Mi W. Guan H. Lyu J. Zhao D. Xi Y. Jiang S. YEATS2 links histone acetylation to tumorigenesis of non-small cell lung cancer Nat. Commun. 8 2017 1088 29057918 10.1038/s41467-017-01173-4 PMC5651844", "settings": "cited from earlier work"}, "AF9-YEATS": {"biological_target": "T1, AF9-YEATS (Homo sapiens, UniProt P42568)", "T1 construct": "For ITC experiments, the cDNAs encoding AF9-YEATS (residues 1–138) and YEATS2-YEATS (200–349) were inserted into the same vector; polyhistidine tag (N); GST (N); made in house", "T1 sequence (P42568 1-138)": "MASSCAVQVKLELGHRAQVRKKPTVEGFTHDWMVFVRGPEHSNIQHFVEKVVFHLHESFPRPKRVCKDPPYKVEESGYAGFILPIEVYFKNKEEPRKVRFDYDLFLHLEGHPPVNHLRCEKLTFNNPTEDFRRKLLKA", "assay": "Peptide array-based binding assay, AF9-YEATS", "settings": "10 μM YEATS domain, 4 °C overnight, anti-GST/HRP chemiluminescence", "protocol": "(§1) For the assay using the MODified Histone Peptide Array, the same cDNA sequences encoding human YEATS domains were amplified by PCR and subcloned into a pCR2.1 vector with a GST-encoding sequence inserted after an N-terminal polyhistidine tag. For microscale thermophoresis measurements, a similar construct but without GST was used. Site-directed mutagenesis of AF9-YEATS (residues 1–138) was conducted by PCR using the DpnI restriction enzyme and the following primer sets: 5′-CCTTCACGCATCCTTTCCTCGTCCTAAAC-3′ (forward) and 5′-GGAAAGGATGCGTGAAGGTGAAACACCAC-3′ (reverse) for E57A and 5′-CGACTATGACCTGTTTCTGCATCTCG-3′ (forward) and 5′-GCAGAAACAGTGCATAGTCGAAGCGAAC-3′ (reverse) for D103A. The introduced mutations were verified by DNA sequencing. For X-ray structural analysis, the cDNAs encoding AF9-YEATS (residues 1–138) and YEATS2-YEATS (202–338) were amplified by PCR and subcloned into the pCR2.1 vector encoding GST and the polyhistidine tag. […]\n(§2) Assays were performed using the MODified Histone Peptide Array (Active Motif) following the manufacturer’s protocol. […] Protein binding was detected by Chemi-Lumi One Super (Nacalai Tesque). Signal intensities were quantified by using the Protein Array Analyzer for ImageJ (written by Gilles Carpentier, 2010. The macro is available online: http://rsb.info.nih.gov/ij/macros/toolsets/Protein Array Analyzer.txt)."}, "ENL-YEATS": {"system": "ENL-YEATS", "assay": "Peptide array-based binding assay, ENL-YEATS", "design": "species or system human", "settings": "10 μM YEATS domain, 4 °C overnight, anti-GST/HRP chemiluminescence", "protocol": "as §1, §2"}, "GAS41-YEATS": {"system": "GAS41-YEATS", "assay": "Peptide array-based binding assay, GAS41-YEATS", "design": "species or system human", "settings": "10 μM YEATS domain, 4 °C overnight, anti-GST/HRP chemiluminescence", "protocol": "as §1, §2"}, "HDAC6": {"system": "HDAC6", "settings": "1 μM TSA, preincubated 37 °C 1 h, NCP monoacetylated at H4 K5, K8, K12 or K16, 16 h, dot blot", "method": "First, we examined whether the reconstituted NCP with Kac is functional as a substrate for lysine deacetylases (KDACs) in vitro. We tested activity of histone deacetylase 6 (HDAC6) toward NCP-containing H4 with K5ac, K8ac, K12ac, or K16ac. […] Subsequently, we examined whether a HDAC-specific inhibitor, trichostatin A (TSA), inhibits deacetylation of Kac-containing NCPs.\nThe NCPs for deacetylation assays were reconstituted using unmodified H2B. In each deacetylation reaction, 200 ng of the Kac-containing NCP was incubated with 50, 100, 200, or 400 ng of HDAC6 (SignalChem; cat. no. H88-30 G) in 20 μl at 37 °C for 16 h. In the inhibitor assays, TSA was added to the reaction mixture not containing NCP to a final concentration of 1 μM and preincubated at 37 °C for 1 h; NCP monoacetylated either at K5, K8, K12, or K16 of H4 was then added. After the reactions, samples were spotted on a nitrocellulose membrane (BioTrace NT Nitrocellulose Transfer Membrane, 0.2 μm, Pall Corporation, cat. no. 66485) and immunoblotted using H4-specific antibodies, each recognizing acetylation at K5, K8, K12, or K16."}}, "note": "pKd: −log10 of the molar value."}
{"substance": "K27-crotonylated H3 (1–34) peptide: K27-crotonylated H3 (1–34) peptide of ref 50", "values": [{"measurement": "pKd", "setting": "YEATS2-YEATS", "result": 4.50}]}
{"substance": "H4 (1–19) tail peptide diacetylated at K5/K8: peptide on MODified Histone Peptide Array (SGRGKGGKGLGKGGAKRHR; K5 and K8 acetylation; UniProt P62805 2-20, looked up, fragment)", "values": [{"measurement": "binding on MODified Histone Peptide Array", "setting": "AF9-YEATS", "result": "bound"}, {"measurement": "binding on MODified Histone Peptide Array", "setting": "ENL-YEATS", "result": "bound"}, {"measurement": "binding on MODified Histone Peptide Array", "setting": "GAS41-YEATS", "result": "bound"}]}
{"substance": "trichostatin A [TSA]", "values": [{"measurement": "inhibition of deacetylation by HDAC6", "setting": "HDAC6", "result": "inhibited deacetylation of all four Kac residues by HDAC6"}]}
